# ChEMBL document CHEMBL5143593 (Eur J Med Chem, 2022)
# Activity calls are given as the source filed them. The rule behind the calls is not given here.
# Tests used:
# D(2) dopamine receptor = D(2) dopamine receptor (Homo sapiens, UniProt P14416); test: Displacement of [3H]-raclopride from human D2L receptor expressed in HEK293 cells measured after 1 hr by Microbeta plate reader method; format: cell-based
# [1] = biological target: 5-hydroxytryptamine receptor 2A (Homo sapiens, UniProt P28223); test: Displacement of [3H]-ketanserin from human 5-HT2A receptor expressed in CHO-K1 cells measured after 1.5 hrs by Microbeta plate reader method; format: cell-based
# [2] = biological target: T1, 5-hydroxytryptamine receptor 3A (Cavia porcellus, UniProt O70212); test: Antagonist activity at 5-HT3 receptor in guinea-pig ileum assessed as inhibition of 5HT-induced contraction; format: tissue-based
# T1 sequence (O70212 whole entry): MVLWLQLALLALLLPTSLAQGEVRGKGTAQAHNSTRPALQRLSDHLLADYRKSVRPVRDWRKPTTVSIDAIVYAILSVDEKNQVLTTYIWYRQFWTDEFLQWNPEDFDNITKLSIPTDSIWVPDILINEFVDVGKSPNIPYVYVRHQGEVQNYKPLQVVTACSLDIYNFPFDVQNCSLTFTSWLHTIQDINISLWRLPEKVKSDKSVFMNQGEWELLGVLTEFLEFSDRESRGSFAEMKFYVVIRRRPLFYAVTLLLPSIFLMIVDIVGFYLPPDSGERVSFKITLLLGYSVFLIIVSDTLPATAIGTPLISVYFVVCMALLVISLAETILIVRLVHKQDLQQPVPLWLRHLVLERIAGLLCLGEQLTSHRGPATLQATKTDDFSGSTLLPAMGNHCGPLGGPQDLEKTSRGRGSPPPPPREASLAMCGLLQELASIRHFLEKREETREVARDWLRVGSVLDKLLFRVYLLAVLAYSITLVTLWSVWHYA
# [3] = Cytotoxicity against CHO-K1 cells measured after 24 hrs by MTT assay; format: toxicity, cell-based, Cricetulus griseus; conditions: Chinese hamster
# [4] = Permeability of compound at pH 7.4 by PAMPA assay
# [5] = biological target: T2, 5-hydroxytryptamine receptor 1A (Homo sapiens, UniProt P08908); test: Displacement of [3H]-8-OH-DPAT from human 5-HT1A receptor expressed in HEK293 cells measured after 1 hr by Microbeta plate reader method; format: cell-based
# T2 sequence (P08908 whole entry): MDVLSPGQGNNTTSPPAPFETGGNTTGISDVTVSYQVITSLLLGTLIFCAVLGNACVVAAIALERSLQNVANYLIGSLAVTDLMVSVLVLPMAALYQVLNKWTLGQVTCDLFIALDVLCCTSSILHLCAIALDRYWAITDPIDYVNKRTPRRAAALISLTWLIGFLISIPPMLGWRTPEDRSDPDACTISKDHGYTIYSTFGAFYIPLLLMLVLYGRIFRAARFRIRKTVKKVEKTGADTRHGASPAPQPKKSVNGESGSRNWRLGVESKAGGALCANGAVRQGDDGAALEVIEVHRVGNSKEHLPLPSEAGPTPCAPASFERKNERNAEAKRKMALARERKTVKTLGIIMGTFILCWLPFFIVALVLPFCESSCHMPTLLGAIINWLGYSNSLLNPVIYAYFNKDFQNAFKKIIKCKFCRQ
# [6] = biological target: 5-hydroxytryptamine receptor 7 (Homo sapiens, UniProt P34969); test: Displacement of [3H]-5-CT from human 5-HT7b receptor expressed in HEK293 cells measured after 1 hr by Microbeta plate reader method; format: cell-based
# [7] = biological target: T3, 5-hydroxytryptamine receptor 3A (Homo sapiens) (UniProt P46098); test: Competitive binding affinity towards 5-HT3 receptor (unknown origin); conditions: filed as antagonist
# T3 sequence (whole entry): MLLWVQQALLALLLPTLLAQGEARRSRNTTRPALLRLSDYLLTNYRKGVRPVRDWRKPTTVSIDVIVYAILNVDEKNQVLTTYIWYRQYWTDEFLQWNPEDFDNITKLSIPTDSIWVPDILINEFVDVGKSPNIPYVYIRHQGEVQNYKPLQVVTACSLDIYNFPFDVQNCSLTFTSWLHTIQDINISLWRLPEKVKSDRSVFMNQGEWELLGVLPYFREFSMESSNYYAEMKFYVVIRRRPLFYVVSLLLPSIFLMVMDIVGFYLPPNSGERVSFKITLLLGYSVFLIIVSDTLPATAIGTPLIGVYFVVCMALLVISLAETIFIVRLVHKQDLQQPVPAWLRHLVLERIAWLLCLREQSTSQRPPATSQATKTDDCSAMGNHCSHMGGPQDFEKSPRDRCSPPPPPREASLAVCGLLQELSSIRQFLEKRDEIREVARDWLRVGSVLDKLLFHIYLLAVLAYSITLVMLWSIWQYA
# [8] = Toxicity in male Wistar rat assessed as maximum tolerated dose administered intraperitoneally; conditions: in vivo, route ip
# [9] = Toxicity in male Wistar rat assessed as adverse effects at 2 mg/kg, ip; format: organism-based; conditions: in vivo
# [10] = Toxicity in male Wistar rat assessed as abnormalities in liver at 2 mg/kg, ip; format: organism-based; conditions: in vivo
# [11] = Toxicity in male Wistar rat assessed as abnormalities in kidney at 2 mg/kg, ip; format: organism-based; conditions: in vivo
# [12] = Toxicity in male Wistar rat assessed as effect on creatine kinase level in plasma at 2 mg/kg, ip; format: organism-based; conditions: in vivo
# [13] = Toxicity in male Wistar rat assessed as effect on AST level at 2 mg/kg, ip; format: organism-based; conditions: in vivo
# [14] = Toxicity in male Wistar rat assessed as effect on ALT level at 2 mg/kg, ip; format: organism-based; conditions: in vivo
# [15] = Half-life in male Wistar rat brain at 2 mg/kg, ip; format: ADME, organism-based
# [16] = Tmax in male Wistar rat brain at 2 mg/kg, ip; format: ADME, organism-based
# [17] = Cmax in male Wistar rat brain at 2 mg/kg, ip; format: ADME, organism-based; design: dose 2 mg/kg, route ip
# [18] = AUC in male Wistar rat brain at 2 mg/kg, ip; format: ADME, organism-based; design: dose 2 mg/kg, route ip; conditions: in vivo
# [19] = MRT in male Wistar rat brain at 2 mg/kg, ip; format: ADME, organism-based
# [20] = Half-life in male Wistar rat plasma at 2 mg/kg, ip; format: ADME, organism-based
# [21] = Tmax in male Wistar rat plasma at 2 mg/kg, ip; format: ADME, organism-based
# [22] = Cmax in male Wistar rat plasma at 2 mg/kg, ip; format: ADME, organism-based; design: dose 2 mg/kg, route ip
# [23] = AUC in male Wistar rat plasma at 2 mg/kg, ip; format: ADME, organism-based; design: dose 2 mg/kg, route ip; conditions: in vivo
# [24] = MRT in male Wistar rat plasma at 2 mg/kg, ip; format: ADME, organism-based
# [25] = Toxicity in male Wistar rat assessed as abnormalities (breathing changes, low activity, abdominal pain during manipulation, narrowed eyes and provoked vocalization) at 27.8 mg/kg, ip; format: organism-based; conditions: in vivo
# [26] = Toxicity in male Wistar rat assessed as abnormalities (low activity and narrowed eyes) at 27.8 mg/kg, ip measured after 24 hrs; format: organism-based; conditions: in vivo
# [27] = Toxicity in male Wistar rat assessed as abnormalities (breathing changes, low activity and narrowed eyes) at 20 mg/kg, ip measured after 4 hrs; format: organism-based; conditions: in vivo
# [28] = Toxicity in male Wistar rat assessed as abnormalities in liver at 20 mg/kg, ip; format: organism-based; conditions: in vivo
# [29] = Toxicity in male Wistar rat assessed as abnormalities in kidney at 20 mg/kg, ip; format: organism-based; conditions: in vivo
# [30] = Toxicity in male Wistar rat assessed as abnormalities in blood plasma at 20 mg/kg, ip; format: organism-based; conditions: in vivo
# [31] = Half-life in male Wistar rat brain at 20 mg/kg, ip; format: ADME, organism-based
# [32] = Tmax in male Wistar rat brain at 20 mg/kg, ip; format: ADME, organism-based
# [33] = Cmax in male Wistar rat brain at 20 mg/kg, ip; format: ADME, organism-based; design: dose 20 mg/kg, route ip
# [34] = AUC in male Wistar rat brain at 20 mg/kg, ip; format: ADME, organism-based; design: dose 20 mg/kg, route ip; conditions: in vivo
# [35] = MRT in male Wistar rat brain at 20 mg/kg, ip; format: ADME, organism-based
# [36] = Half-life in male Wistar rat plasma at 20 mg/kg, ip; format: ADME, organism-based
# [37] = Tmax in male Wistar rat plasma at 20 mg/kg, ip; format: ADME, organism-based
# [38] = Cmax in male Wistar rat plasma at 20 mg/kg, ip; format: ADME, organism-based; design: dose 20 mg/kg, route ip
# [39] = AUC in male Wistar rat plasma at 20 mg/kg, ip; format: ADME, organism-based; design: dose 20 mg/kg, route ip; conditions: in vivo
# [40] = MRT in male Wistar rat plasma at 20 mg/kg, ip; format: ADME, organism-based
# [41] = Cytotoxicity against HEK293 cells measured after 24 hrs by MTT assay; format: toxicity, cell-based; conditions: human
# Rattus norvegicus [42] = test: Antipsychotic activity in male Wistar rat assessed as inhibition of amphetamine-stimulated locomotor activity at 1 mg/kg, ip; format: functional, organism-based
# Rattus norvegicus [43] = test: Antipsychotic activity in male Wistar rat assessed as restoration of prepulse inhibition of acoustic startle response at 1 mg/kg, ip; format: functional, organism-based
# Chain of 5-hydroxytryptamine receptor 7 (P34969 whole entry): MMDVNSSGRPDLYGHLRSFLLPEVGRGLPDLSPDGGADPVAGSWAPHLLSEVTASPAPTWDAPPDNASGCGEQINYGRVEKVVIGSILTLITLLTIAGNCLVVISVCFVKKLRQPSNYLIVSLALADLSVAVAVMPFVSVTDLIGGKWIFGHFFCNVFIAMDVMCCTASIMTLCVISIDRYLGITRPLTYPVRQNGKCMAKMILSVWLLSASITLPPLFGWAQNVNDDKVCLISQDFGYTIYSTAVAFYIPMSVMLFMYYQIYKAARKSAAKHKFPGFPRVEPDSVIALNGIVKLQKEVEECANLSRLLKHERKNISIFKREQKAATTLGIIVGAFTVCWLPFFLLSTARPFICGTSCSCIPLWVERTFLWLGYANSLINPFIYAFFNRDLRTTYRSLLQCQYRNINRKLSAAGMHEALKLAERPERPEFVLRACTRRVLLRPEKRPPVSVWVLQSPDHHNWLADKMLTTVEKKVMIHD
# Chain of 5-hydroxytryptamine receptor 2A (P28223 whole entry): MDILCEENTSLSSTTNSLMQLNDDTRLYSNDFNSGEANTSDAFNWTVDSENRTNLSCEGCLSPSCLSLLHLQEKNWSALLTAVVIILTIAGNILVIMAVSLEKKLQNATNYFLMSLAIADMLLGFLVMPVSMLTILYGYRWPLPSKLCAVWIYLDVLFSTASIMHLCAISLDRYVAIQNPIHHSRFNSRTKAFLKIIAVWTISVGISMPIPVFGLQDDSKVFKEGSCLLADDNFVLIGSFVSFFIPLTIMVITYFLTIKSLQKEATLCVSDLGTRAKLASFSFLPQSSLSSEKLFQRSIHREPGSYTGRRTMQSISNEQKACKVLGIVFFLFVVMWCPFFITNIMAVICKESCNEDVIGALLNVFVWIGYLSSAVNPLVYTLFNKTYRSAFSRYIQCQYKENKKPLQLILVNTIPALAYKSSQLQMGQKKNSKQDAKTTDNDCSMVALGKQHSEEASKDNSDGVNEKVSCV
# Chain of D(2) dopamine receptor (P14416 whole entry): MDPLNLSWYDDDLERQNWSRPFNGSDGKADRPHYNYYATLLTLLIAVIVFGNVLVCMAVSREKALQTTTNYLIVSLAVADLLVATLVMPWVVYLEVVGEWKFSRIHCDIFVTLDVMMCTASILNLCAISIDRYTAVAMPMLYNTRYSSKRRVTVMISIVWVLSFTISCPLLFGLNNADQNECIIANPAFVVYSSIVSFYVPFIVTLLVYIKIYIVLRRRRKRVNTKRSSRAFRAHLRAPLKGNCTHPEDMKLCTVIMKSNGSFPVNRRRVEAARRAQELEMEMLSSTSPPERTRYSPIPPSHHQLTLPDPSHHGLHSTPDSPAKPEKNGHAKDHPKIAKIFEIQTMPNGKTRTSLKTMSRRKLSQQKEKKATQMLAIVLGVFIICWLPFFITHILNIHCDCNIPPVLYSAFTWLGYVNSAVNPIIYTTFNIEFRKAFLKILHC
Structure (SMILES),Ki (D(2) dopamine receptor) [µM],Ki [1] [µM],IC50 [2] [µM],IC50 at 24 h [3] [µM],Papp [4] [×10⁻⁶ cm/s],also measured
Cn1nc(C(=O)N2CCN(CCN3CCN(c4cccc(Cl)c4Cl)CC3)CC2)c2ccccc21,0.13,1.8,1,45,6.8,
Cc1nccn1CC1CCc2c(c3ccccc3n2C)C1=O (stereo not drawn) [ONDANSETRON],> 10,,,,,Ki [5]: > 10 µM; Ki [6]: > 1 µM; pKb [7]: 7.36
N#Cc1cccnc1N1CCN(CCCOc2ccc3c(c2)NC(=O)CC3)CC1,0.081,5.3,,350,14,pKb [7]: 5
COc1ccccc1N1CCN(CCCNC(=O)c2cnccn2)CC1,0.86,35.8,,> 500,25,
N#Cc1cccnc1N1CCN(CCCCOc2ccc3c(c2)NC(=O)CC3)CC1,2.1,7.4,,1000,12,
O=C1CCc2ccc(OCCCCN3CCN(C(=O)c4ccccn4)CC3)cc2N1,0.009,6.9,> 10,89,9.4,
COc1ccccc1N1CCN(CCN2CCN(C(=O)c3nn(C)c4ccccc34)CC2)CC1,0.63,8.3,3,780,13,
O=C(c1ccccc1)N1CCN(CCCN2CCN(c3cccc(Cl)c3Cl)CC2)CC1,0.12,1.7,> 3,110,23,
N#Cc1cccnc1N1CCN(CCCN2CCN(c3cccc(Cl)c3Cl)CC2)CC1,,0.47,0.3,,5.9,Ki [5]: 0.019 µM; Ki [6]: 0.57 µM; MTD [8]: 0.2 mg/kg; Activity [9]: Non-Toxic; Activity [10]: Non-Toxic; Activity [11]: Non-Toxic; Activity [12]: Non-Toxic; Activity [13]: Non-Toxic; Activity [14]: Non-Toxic; half-life [15]: 263 min; Tmax [16]: 60 min; Cmax [17]: 266 nM; AUC [18]: 88483.21 nmol·min/L; MRT [19]: 459 min; half-life [20]: 100 min; Tmax [21]: 3 min; Cmax [22]: 97.9 nM; AUC [23]: 10886.71 nmol·min/L; MRT [24]: 228 min
O=C(c1ccccn1)N1CCN(CCCN2CCN(c3cccc(Cl)c3Cl)CC2)CC1,0.082,2.3,,290,17,pKb [7]: 5.3
CN(C)CCCN1c2ccccc2Sc2ccc(Cl)cc21 [CHLORPROMAZINE],,,,,9.6,
COc1ccccc1N1CCN(CCCN2CCN(C(=O)c3ccccn3)CC2)CC1,0.59,,,1900,8.7,
COc1ccccc1N1CCN(CCCN2CCN(c3ncccc3C#N)CC2)CC1,,23,,,20,Ki [5]: 0.018 µM; Ki [6]: 2.7 µM; MTD [8]: 2.78 mg/kg; Activity [25]: Toxic; Activity [26]: Toxic; Activity [27]: Toxic; Activity [28]: Non-Toxic; Activity [29]: Non-Toxic; Activity [30]: Non-Toxic; half-life [31]: 26.7 min; Tmax [32]: 5 min; Cmax [33]: 3520 nM; AUC [34]: 272930.4 nmol·min/L; MRT [35]: 57.8 min; half-life [36]: 48.8 min; Tmax [37]: 5 min; Cmax [38]: 3210 nM; AUC [39]: 91958.8 nmol·min/L; MRT [40]: 61.4 min
COc1ccccc1N1CCN(CCCN2CCN(C(=O)c3ccccc3)CC2)CC1,0.26,30,,1300,11,
CN1CCN(C2=Nc3cc(Cl)ccc3Nc3ccccc32)CC1 [CLOZAPINE],,,110,,,
O=C1CCc2ccc(OCCCCN3CCN(c4cccc(Cl)c4Cl)CC3)cc2N1 [ARIPIPRAZOLE],,,630,,,IC50 at 24 h [41]: > 100 µM; Activity (Rattus norvegicus [42]): Active; Activity (Rattus norvegicus [43]): Active
O=C(c1ccccc1)N1CCN(CCCN2CCN(c3ccccc3)CC2)CC1,2.1,6.5,,1300,20,
COc1ccc(N2CCN(CCCN3CCN(C(=O)c4ccccc4)CC3)CC2)cc1,5.5,30,> 10,> 400,23,
N#Cc1cccnc1N1CCN(CCN2CCN(c3cccc(Cl)c3Cl)CC2)CC1,0.21,1.3,1,220,7.9,
COc1ccc(N2CCN(CCCN3CCN(c4ncccc4C#N)CC3)CC2)cc1,1.5,40,3,360,24,
NS(=O)(=O)c1cc2c(cc1Cl)N=CNS2(=O)=O [CHLOROTHIAZIDE],,,,,0.3,
COc1ccccc1N1CCN(CCN2CCN(c3ncccc3C#N)CC2)CC1,0.13,,> 10,780,14,
CN1CCN(c2nc3ncccc3cc2C#N)CC1,,,,,,Kb ([2]; read-out: pA2 (converted)): 0.0398 µM
N#Cc1cccnc1N1CCN(CCCN2CCN(c3ccccc3)CC2)CC1,0.77,13,> 3,770,25,
